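Five compound concentrations were applied to cells in 96-well plates for 48 hours; endpoints were derived by simple linear interpolation of the resulting dose-response curve. Abbreviation: GI50, concentration required for 50% inhibition of growth.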 Active and inactive are the calls of the source. Rule as the data show it: active = GI50 up to about 1.1 µM and inactive = higher.
Columns and labels:
Experiment in all cases: NCI-60 cell line screen, 48 h
UACC-62 = tested on: UACC-62
NCI-H226 = tested on: NCI-H226
M14 = tested on: M14
SNB-19 = tested on: SNB-19
UO-31 = tested on: UO-31
COLO 205 = tested on: COLO 205
CCRF-CEM = tested on: CCRF-CEM
RPMI-8226 = tested on: RPMI-8226
HCT-15 = tested on: HCT-15
SK-OV-3 = tested on: SK-OV-3
SK-MEL-28 = tested on: SK-MEL-28
CAKI-1 = tested on: CAKI-1
SK-MEL-5 = tested on: SK-MEL-5
LOX IMVI = tested on: LOX IMVI
U-251 = tested on: U-251
SF-295 = tested on: SF-295
UACC-257 = tested on: UACC-257
HL-60 = tested on: HL-60
SNB-75 = tested on: SNB-75

| Structure (SMILES) | GI50 (UACC-62) | GI50 (NCI-H226) | GI50 (M14) | GI50 (SNB-19) | GI50 (UO-31) | GI50 (COLO 205) | GI50 (CCRF-CEM) | GI50 (RPMI-8226) | GI50 (HCT-15) [µM] | GI50 (SK-OV-3) | GI50 (SK-MEL-28) | GI50 (CAKI-1) | GI50 (SK-MEL-5) | GI50 (LOX IMVI) | GI50 (U-251) | GI50 (SF-295) | GI50 (UACC-257) | GI50 (HL-60) | GI50 (SNB-75) |
| --- | --- | --- | --- | --- | --- | --- | --- | --- | --- | --- | --- | --- | --- | --- | --- | --- | --- | --- | --- |
| CC12CCC(/C(=N/c3cc(C(F)(F)F)cc(C(F)(F)F)c3)C1=O)C2(C)C (stereo not drawn) | 31.3 µM (inactive) | 86.7 µM (inactive) | 30.6 µM (inactive) | 49.4 µM (inactive) | 52 µM (inactive) | 19.1 µM (inactive) | 0.453 µM (active) | 17.8 µM (inactive) | 29.1 | > 100 µM (inactive) | 25.8 µM (inactive) | 44 µM (inactive) | 48.2 µM (inactive) | 15.2 µM (inactive) | 35.4 µM (inactive) | 41.9 µM (inactive) | 46.6 µM (inactive) | 1.04 µM (active) |  |
| COC(=O)/C(=N\NC(N)=S)C(C(=O)OC)C(=O)C(=O)Nc1ccc(C)cc1 (stereo not drawn) | > 100 µM (inactive) | > 100 µM (inactive) | > 100 µM (inactive) | > 100 µM (inactive) | > 100 µM (inactive) | > 100 µM (inactive) | > 100 µM (inactive) | > 100 µM (inactive) | > 100 | > 100 µM (inactive) | > 100 µM (inactive) | > 100 µM (inactive) | > 100 µM (inactive) | > 100 µM (inactive) | > 100 µM (inactive) | > 100 µM (inactive) | > 100 µM (inactive) | > 100 µM (inactive) | 41.9 µM (inactive) |
| Clc1nc(Cl)c(Cl)c(-c2ccccc2)n1 |  | 24.3 µM (inactive) | 1.77 µM (inactive) | 15.6 µM (inactive) | 18.1 µM (inactive) |  | 0.74 µM (active) | 5.24 µM (inactive) | 11.4 | 13.1 µM (inactive) | 16 µM (inactive) |  | 2.43 µM (inactive) | 1.86 µM (inactive) | 15.1 µM (inactive) | 3.93 µM (inactive) | 20.5 µM (inactive) | > 100 µM (inactive) | 2.26 µM (inactive) |
| CC(Oc1ccc(OCC2CCCCC2)cc1)C(=O)NCCO (stereo not drawn) | > 100 µM (inactive) | > 100 µM (inactive) | > 100 µM (inactive) | > 100 µM (inactive) | 56.4 µM (inactive) |  | > 100 µM (inactive) |  | > 100 | > 100 µM (inactive) | > 100 µM (inactive) |  | > 100 µM (inactive) | 26.7 µM (inactive) | > 100 µM (inactive) | 23.4 µM (inactive) | 49.7 µM (inactive) | > 100 µM (inactive) | > 100 µM (inactive) |
| CC1(C)Oc2ccc3c(=O)cc(-c4ccccc4)oc3c2C1C(=O)O (stereo not drawn) | > 100 µM (inactive) | > 100 µM (inactive) | > 100 µM (inactive) |  |  | > 100 µM (inactive) | > 100 µM (inactive) |  | > 100 | > 100 µM (inactive) |  | > 100 µM (inactive) | > 100 µM (inactive) |  | > 100 µM (inactive) | > 100 µM (inactive) | > 100 µM (inactive) | > 100 µM (inactive) |  |
| COC(=O)c1cc(C)c(C)c2c1NC(=O)CNC2=O | > 100 µM (inactive) |  | > 100 µM (inactive) |  | 33.5 µM (inactive) | > 100 µM (inactive) | > 100 µM (inactive) | > 100 µM (inactive) | > 100 |  | > 100 µM (inactive) | > 100 µM (inactive) |  |  | > 100 µM (inactive) | > 100 µM (inactive) | > 100 µM (inactive) | > 100 µM (inactive) | > 100 µM (inactive) |
| CC[C@H](C)C(=O)O[C@H]1CCC=C2C=C[C@H](C)[C@H](CC[C@@H]3C[C@@H](O)CC(=O)O3)[C@H]21 [MEVASTATIN] | 5.68 µM (inactive) | 25.4 µM (inactive) | 10 µM (inactive) | 16.4 µM (inactive) | 9.06 µM (inactive) | 12.9 µM (inactive) |  | 20 µM (inactive) | 4.06 | 44.3 µM (inactive) | 60.7 µM (inactive) | 3.37 µM (inactive) | 20.6 µM (inactive) | 1.97 µM (inactive) | 3.62 µM (inactive) | 3.27 µM (inactive) | 50.4 µM (inactive) | 46.6 µM (inactive) | 2.07 µM (inactive) |
| Cc1cc2ccccc2n2c1nc1ccc(O)cc12 | > 10 µM (inactive) |  | > 10 µM (inactive) | > 10 µM (inactive) |  | > 10 µM (inactive) | > 10 µM (inactive) | > 10 µM (inactive) | > 10 | > 10 µM (inactive) | > 10 µM (inactive) | > 10 µM (inactive) | > 10 µM (inactive) |  | 7.71 µM (inactive) | > 10 µM (inactive) | > 10 µM (inactive) | > 10 µM (inactive) | 5 µM (inactive) |
| O=C1CCN(CCC(F)(F)C(F)(F)C(F)(F)C(F)(F)F)C(=S)N1 | > 100 µM (inactive) | > 100 µM (inactive) | > 100 µM (inactive) | > 100 µM (inactive) | > 100 µM (inactive) | > 100 µM (inactive) | > 100 µM (inactive) | > 100 µM (inactive) | > 100 |  | > 100 µM (inactive) |  | > 100 µM (inactive) | > 100 µM (inactive) | > 100 µM (inactive) | > 100 µM (inactive) |  | > 100 µM (inactive) | > 100 µM (inactive) |
| CSc1nc2nc(C(O)C(O)C(O)CO)cnc2c(=O)[nH]1 (stereo not drawn) | > 100 µM (inactive) | > 100 µM (inactive) | > 100 µM (inactive) | > 100 µM (inactive) | > 100 µM (inactive) | > 100 µM (inactive) | > 100 µM (inactive) | > 100 µM (inactive) | > 100 | > 100 µM (inactive) | > 100 µM (inactive) | > 100 µM (inactive) | > 100 µM (inactive) | > 100 µM (inactive) | > 100 µM (inactive) | > 100 µM (inactive) | > 100 µM (inactive) | > 100 µM (inactive) | > 100 µM (inactive) |
| N#C/C(=C\c1cc(Cl)cc(Cl)c1)c1ccccn1 | 12 µM (inactive) | 5.47 µM (inactive) | 35.5 µM (inactive) | > 100 µM (inactive) | 43.8 µM (inactive) | 31.8 µM (inactive) | 3.63 µM (inactive) | > 100 µM (inactive) | 4.75 | 4.52 µM (inactive) | 8.63 µM (inactive) | 13.6 µM (inactive) | 8.51 µM (inactive) |  | 7.94 µM (inactive) | 10.5 µM (inactive) | 82.8 µM (inactive) | 6.27 µM (inactive) | 5.55 µM (inactive) |
| O=C1/C(=C/c2ccccc2)CCc2ccccc21 | 17.9 µM (inactive) | 18.3 µM (inactive) | 20.1 µM (inactive) | 10.4 µM (inactive) | 14.6 µM (inactive) | 19.6 µM (inactive) | 4.02 µM (inactive) | 3.11 µM (inactive) | 25.6 | 25.6 µM (inactive) | 19 µM (inactive) | 17.7 µM (inactive) | 17.7 µM (inactive) | 16.8 µM (inactive) | 16.2 µM (inactive) | 17.7 µM (inactive) | 16.1 µM (inactive) | 16.9 µM (inactive) | 17.3 µM (inactive) |
| CC(O[Si](C)(C)C(C)(C)C)[C@H](NC(=O)OCC(Cl)(Cl)Cl)C(=O)O (stereo partly drawn) | 53.5 µM (inactive) | > 100 µM (inactive) |  | > 100 µM (inactive) | > 100 µM (inactive) | > 100 µM (inactive) | > 100 µM (inactive) | 84.7 µM (inactive) | > 100 | > 100 µM (inactive) | > 100 µM (inactive) |  | > 100 µM (inactive) | > 10 µM (inactive) | > 100 µM (inactive) | 51.2 µM (inactive) | > 100 µM (inactive) | > 100 µM (inactive) |  |
| Cc1ccc(C(=C2Sc3ccccc3S2)C(=C2Sc3ccccc3S2)c2ccc(C)s2)s1 | > 100 µM (inactive) | > 100 µM (inactive) | 76.2 µM (inactive) | > 100 µM (inactive) | > 100 µM (inactive) | > 100 µM (inactive) | > 100 µM (inactive) | > 100 µM (inactive) | > 100 | > 100 µM (inactive) | > 100 µM (inactive) | > 100 µM (inactive) | > 100 µM (inactive) |  | > 100 µM (inactive) | > 100 µM (inactive) | > 100 µM (inactive) | 13.6 µM (inactive) | > 100 µM (inactive) |
| O=C(O)c1cc2c(cc1CC(Cc1ccccc1)C(=O)O)CCC2 (stereo not drawn) |  | > 100 µM (inactive) | > 100 µM (inactive) | > 100 µM (inactive) | > 100 µM (inactive) | > 100 µM (inactive) | > 100 µM (inactive) | > 100 µM (inactive) | > 100 | > 100 µM (inactive) | > 100 µM (inactive) | > 100 µM (inactive) | > 100 µM (inactive) | > 100 µM (inactive) | > 100 µM (inactive) | > 100 µM (inactive) | > 100 µM (inactive) | > 100 µM (inactive) | > 100 µM (inactive) |
| CCOP(=O)(/C=C\n1ccc(=O)[nH]c1=O)OCC | > 100 µM (inactive) | > 100 µM (inactive) | > 100 µM (inactive) | > 100 µM (inactive) |  | > 100 µM (inactive) | > 100 µM (inactive) | > 100 µM (inactive) | > 100 | > 100 µM (inactive) | > 100 µM (inactive) | > 100 µM (inactive) | > 100 µM (inactive) | > 100 µM (inactive) | > 100 µM (inactive) | > 100 µM (inactive) | > 100 µM (inactive) | > 100 µM (inactive) | > 100 µM (inactive) |
| CCN(CC)CCNc1n[n+]([O-])c2ccccc2[n+]1[O-] | 4.8 µM (inactive) | 7.21 µM (inactive) | 6.7 µM (inactive) | 13.5 µM (inactive) | 19 µM (inactive) | 5.96 µM (inactive) | 3.91 µM (inactive) | 4.48 µM (inactive) | 3.92 | 4 µM (inactive) | 39.4 µM (inactive) |  | 1.59 µM (inactive) | 9.86 µM (inactive) | 12.8 µM (inactive) | 7.93 µM (inactive) |  | 1.85 µM (inactive) |  |
